Results published in ChEMBL document CHEMBL2074182, “Influence of antipsychotic, antiemetic, and Ca(2+) channel blocker drugs on the cellular accumulation of the anticancer drug daunorubicin: P-glycoprotein modulation” (J Pharmacol Exp Ther, 2000).

Columns and labels:
Type in all cases: functional, cell-based
[1] = biological target: T1, ATP-dependent translocase ABCB1 (Homo sapiens, UniProt P08183); assay: TP_TRANSPORTER: increase in Rhodamine 123 intracellular accumulation (R123: 150 uM, Prochloperazine: 5 ug/mL) in MDR1-expressing NIH3T3 cells; conditions: mouse
[2] = biological target: T1, ATP-dependent translocase ABCB1; assay: TP_TRANSPORTER: increase in Rhodamine 123 intracellular accumulation (R123: 150 uM, Promethazine: 20 ug/mL) in MDR1-expressing NIH3T3 cells; conditions: mouse
[3] = biological target: T1, ATP-dependent translocase ABCB1; assay: TP_TRANSPORTER: increase in Rhodamine 123 intracellular accumulation (R123: 150 uM, Chlorpromazine: 2.5 ug/mL) in MDR1-expressing NIH3T3 cells; conditions: mouse
[4] = biological target: T2, MDR1 (P-glycoprotein, ABCB1) (Homo sapiens, UniProt P08183); assay: TP_TRANSPORTER: increase in Rhodamine 123 intracellular accumulation (R123: 150 uM, Bepridil: 5 ug/mL) in MDR1-expressing NIH3T3 cells; conditions: mouse, probe Rhodamine 123 (150 uM)
[5] = biological target: T2, MDR1 (P-glycoprotein, ABCB1); assay: TP_TRANSPORTER: increase in Rhodamine 123 intracellular accumulation (R123: 150 uM, Nicardipine: 2 ug/mL) in MDR1-expressing NIH3T3 cells; conditions: mouse, probe Rhodamine 123 (150 uM)

T1 sequence (P08183 whole entry): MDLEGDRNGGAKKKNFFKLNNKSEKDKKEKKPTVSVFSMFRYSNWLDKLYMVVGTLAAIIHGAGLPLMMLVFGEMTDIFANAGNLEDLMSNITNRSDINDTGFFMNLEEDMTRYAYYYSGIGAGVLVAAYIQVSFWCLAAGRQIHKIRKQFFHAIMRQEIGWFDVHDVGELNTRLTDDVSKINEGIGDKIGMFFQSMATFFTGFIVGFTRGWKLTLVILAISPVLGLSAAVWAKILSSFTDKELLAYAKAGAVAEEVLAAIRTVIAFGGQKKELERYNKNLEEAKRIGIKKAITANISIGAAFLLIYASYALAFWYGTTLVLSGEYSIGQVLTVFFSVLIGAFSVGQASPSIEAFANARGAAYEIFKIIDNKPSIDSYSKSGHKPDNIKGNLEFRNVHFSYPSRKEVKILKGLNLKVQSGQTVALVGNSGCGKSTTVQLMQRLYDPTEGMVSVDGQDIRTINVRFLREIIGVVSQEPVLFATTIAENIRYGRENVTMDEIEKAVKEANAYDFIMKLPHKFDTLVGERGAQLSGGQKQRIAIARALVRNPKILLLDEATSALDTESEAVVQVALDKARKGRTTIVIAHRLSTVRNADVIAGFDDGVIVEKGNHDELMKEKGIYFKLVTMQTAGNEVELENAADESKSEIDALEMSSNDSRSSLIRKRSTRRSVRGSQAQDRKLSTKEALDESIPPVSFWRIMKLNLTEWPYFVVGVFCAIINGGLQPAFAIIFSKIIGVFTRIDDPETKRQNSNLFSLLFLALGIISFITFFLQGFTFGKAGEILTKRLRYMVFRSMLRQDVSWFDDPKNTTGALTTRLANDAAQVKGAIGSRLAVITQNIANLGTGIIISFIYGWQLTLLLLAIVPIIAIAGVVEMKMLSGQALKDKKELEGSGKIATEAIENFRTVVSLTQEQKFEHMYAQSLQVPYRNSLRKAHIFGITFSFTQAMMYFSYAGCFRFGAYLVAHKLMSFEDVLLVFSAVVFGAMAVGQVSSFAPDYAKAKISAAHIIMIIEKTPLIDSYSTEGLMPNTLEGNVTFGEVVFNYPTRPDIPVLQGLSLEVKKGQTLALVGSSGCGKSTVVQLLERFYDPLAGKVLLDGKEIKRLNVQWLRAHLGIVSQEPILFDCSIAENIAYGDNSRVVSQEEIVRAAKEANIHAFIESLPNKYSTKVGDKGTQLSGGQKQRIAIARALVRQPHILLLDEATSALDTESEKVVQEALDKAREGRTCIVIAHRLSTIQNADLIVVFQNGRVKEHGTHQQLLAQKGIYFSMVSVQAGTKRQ
T2 sequence (P08183 whole entry): as above

SMILES: CN1CCN(CCCN2c3ccccc3Sc3ccc(Cl)cc32)CC1 [PROCHLORPERAZINE]
- Inhibition [1]: inhibitor [(at a rough estimate) 80 % inhibition]

SMILES: CC(CN1c2ccccc2Sc2ccccc21)N(C)C (stereo not given) [PROMETHAZINE]
- Inhibition [2]: inhibitor [(at a rough estimate) 80 % inhibition]

SMILES: CCCNC(=O)NS(=O)(=O)c1ccc(Cl)cc1 [CHLORPROPAMIDE]
- Inhibition [3]: inhibitor [at a rough estimate 90 % inhibition]

SMILES: CC(C)COCC(CN(Cc1ccccc1)c1ccccc1)N1CCCC1 (stereo not given) [BEPRIDIL]
- inhibition at 5 ug/mL [4]: 100%

SMILES: COC(=O)C1=C(C)NC(C)=C(C(=O)OCCN(C)Cc2ccccc2)C1c1cccc([N+](=O)[O-])c1 (stereo not given) [NICARDIPINE]
- inhibition at 2 ug/mL [5]: 100%
